According to patent US20230340012A1, “NATURAL AND SYNTHETIC COMPOUNDS FOR TREATING CANCER AND OTHER DISEASES” (PACIFIC ARROW LIMITED, priority 2009, published 2023):

System: cancer cells
Assay: MTT cytotoxic assay of esterification products (Cytotoxicity activity)
Assay type: cell-based, human
Summary of the method: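 Cytotoxicity was read by MTT (Carmichael method, modified), with cells seeded 24 h ahead of treatment. Sixteen human cancer lines spanning bone, lung, bladder, ovary, colon, pancreas, prostate, skin, mouth, kidney, breast, liver, brain, leukemia and cervix were used. Test samples were acyl chloride esterification products of triterpenes, as mixtures or HPLC-purified compounds.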

[1] = MTT cytotoxic assay, isolated esterification products of E4A
[2] = esterification products isolated with HPLC, graded strong / moderate / weak
[3] = E4A esterified with 2-propenoyl chloride (Ppe = Propenoyl), compounds isolated with HPLC
[4] = E4A esterified with Propionyl chloride (Ppi = Propionyl), compounds isolated with HPLC
[5] = E4A esterified with benzoyl chloride (Ben = benzoyl), compounds isolated with HPLC
[6] = esterification products of core compound E4A with (2E)-2-pentenoyl chloride (2pe = 2-pentenoyl)
[7] = esterification products of core compound E4A with Butyryl chloride (But = Butyryl)
[8] = esterification products of core compound E4A with Decanoyl chloride (Dec = Decanoyl)
[9] = esterification products of core compound E4A with Isobutyryl chloride (Iso = Isobutyryl)
[10] = esterification products of core compound E4A with Myristoyl chloride (Myr = Myristoyl)
[11] = esterification products of core compound E4A with Octanoyl chloride (Oct = Octanoyl)
[12] = E4A esterified with Cinnamoyl chloride (Cin = Cinnamoyl), compounds isolated with HPLC
[13] = E4A esterified with Crotonoyl chloride (Cro = Crotonoyl), compounds isolated with HPLC
[14] = E4A esterified with Acetyl chloride (Acy = Acetyl), compounds isolated with HPLC

CC=C(C)C(=O)OCC1(C)C(OC(=O)C(C)=CC)CCC2(C)C1CCC1(C)C2CC=C2C3CC(C)(C)C(O)C(O)C3(CO)C(O)CC21C (stereo not shown) [Compound A31]
Cytotoxicity activity [1]: moderate

CC=CC(=O)OC1C(O)C2(COC(=O)C(C)=CC)C(O)CC3(C)C(=CCC4C5(C)CCC(OC(=O)C=CC)C(C)(COC(=O)C(C)=CC)C5CCC43C)C2CC1(C)C (stereo not shown) [Tig—R—Cro—5]
Cytotoxicity activity [2]: weak

CC=CC(=O)OC1C(OC(=O)C=CC)C2(COC(=O)C(C)=CC)C(O)CC3(C)C(=CCC4C5(C)CCC(O)C(C)(COC(=O)C(C)=CC)C5CCC43C)C2CC1(C)C (stereo not shown) [Tig—R—Cro—1]
Cytotoxicity activity [2]: weak

CC1(C)CC2C3=CCC4C5(C)CCC(OC(=O)c6ccccc6)C(C)(COC(=O)c6ccccc6)C5CCC4(C)C3(C)CC(OC(=O)c3ccccc3)C2(COC(=O)c2ccccc2)C(OC(=O)c2ccccc2)C1OC(=O)c1ccccc1 (stereo not shown) [Compound K19]
Cytotoxicity activity [3]: none
Cytotoxicity activity [4]: none
Cytotoxicity activity [5]: none
Cytotoxicity activity [6]: none
Cytotoxicity activity [7]: none
Cytotoxicity activity [8]: none
Cytotoxicity activity [9]: none
Cytotoxicity activity [10]: none
Cytotoxicity activity [11]: none

CC1(C)CC2C3=CCC4C5(C)CCC(OC(=O)c6ccccc6)C(C)(CO)C5CCC4(C)C3(C)CC(O)C2(COC(=O)c2ccccc2)C(O)C1O (stereo not shown) [Compound K27]
Cytotoxicity activity [3]: moderate
Cytotoxicity activity [4]: moderate
Cytotoxicity activity [5]: moderate
Cytotoxicity activity [6]: moderate
Cytotoxicity activity [7]: moderate
Cytotoxicity activity [8]: moderate
Cytotoxicity activity [9]: moderate
Cytotoxicity activity [10]: moderate
Cytotoxicity activity [11]: moderate

CC1(C)CC2C3=CCC4C5(C)CCC(O)C(C)(COC(=O)C=Cc6ccccc6)C5CCC4(C)C3(C)CC(O)C2(CO)C(O)C1O (stereo not shown) [Compound J1]
Cytotoxicity activity [12]: moderate

CCC(CC)C(=O)OC1C(OC(=O)C(CC)CC)C2(CO)C(O)CC3(C)C(=CCC4C5(C)CCC(O)C(C)(CO)C5CCC43C)C2CC1(C)C (stereo not shown) [Compound E24]
Cytotoxicity activity [1]: moderate

CC=C(C)C(=O)OCC1(C)C(O)CCC2(C)C1CCC1(C)C2CC=C2C3CC(C)(C)C(OC(C)=O)C(OC(C)=O)C3(COC(=O)C(C)=CC)C(O)CC21C (stereo not shown) [Tig—R—Acy—1]
Cytotoxicity activity [2]: weak

CCCCCC(=O)OCC12C(O)CC3(C)C(=CCC4C5(C)CCC(O)C(C)(CO)C5CCC43C)C1CC(C)(C)C(O)C2OC(=O)CCCCC (stereo not shown) [Compound D26]
Cytotoxicity activity [1]: moderate

C=CCCC(=O)OCC1(C)C(O)CCC2(C)C1CCC1(C)C2CC=C2C3CC(C)(C)C(OC(=O)CCC=C)C(O)C3(COC(=O)CCC=C)C(OC(=O)CCC=C)CC21C (stereo not shown) [Compound C13]
Cytotoxicity activity [1]: weak

CC=CC(=O)OCC12C(O)CC3(C)C(=CCC4C5(C)CCC(O)C(C)(CO)C5CCC43C)C1CC(C)(C)C(O)C2OC(=O)C=CC (stereo not shown) [Compound I26]
Cytotoxicity activity [13]: moderate

CC=C(C)C(=O)OCC1(C)C(O)CCC2(C)C1CCC1(C)C2CC=C2C3CC(C)(C)C(OC(=O)CCCCC)C(OC(=O)CCCCC)C3(COC(=O)C(C)=CC)C(O)CC21C (stereo not shown) [Tig—R—Hex—1]
Cytotoxicity activity [2]: weak

CCC(CC)C(=O)OCC1(C)C(O)CCC2(C)C1CCC1(C)C2CC=C2C3CC(C)(C)C(OC(=O)C(CC)CC)C(O)C3(CO)C(O)CC21C (stereo not shown) [Compound E29]
Cytotoxicity activity [1]: moderate

C=CCCC(=O)OCC1(C)C(O)CCC2(C)C1CCC1(C)C2CC=C2C3CC(C)(C)C(O)C(O)C3(COC(=O)CCC=C)C(OC(=O)CCC=C)CC21C (stereo not shown) [Compound C7]
Cytotoxicity activity [1]: moderate

CC(=O)OCC1(C)C(O)CCC2(C)C1CCC1(C)C2CC=C2C3CC(C)(C)C(O)C(OC(C)=O)C3(COC(C)=O)C(OC(C)=O)CC21C (stereo not shown) [Compound H12]
Cytotoxicity activity [14]: weak

CC=C(C)C(=O)OCC1(C)C(OC(=O)C(C)=CC)CCC2(C)C1CCC1(C)C2CC=C2C3CC(C)(C)C(O)C(O)C3(COC(=O)C(C)=CC)C(O)CC21C (stereo not shown) [Tig—Ang—4]
Cytotoxicity activity [2]: moderate

CC=CC(=O)OC1C(O)C(C)(C)CC2C3=CCC4C5(C)CCC(O)C(C)(COC(=O)C(C)=CC)C5CCC4(C)C3(C)CC(O)C21COC(=O)C(C)=CC (stereo not shown) [Tig—R—Cro—3]
Cytotoxicity activity [2]: moderate

C=CCCC(=O)OCC1(C)C(OC(=O)CCC=C)CCC2(C)C1CCC1(C)C2CC=C2C3CC(C)(C)C(O)C(O)C3(COC(=O)CCC=C)C(O)CC21C (stereo not shown) [Compound C6]
Cytotoxicity activity [1]: moderate

C=CCCC(=O)OCC1(C)C(O)CCC2(C)C1CCC1(C)C2CC=C2C3CC(C)(C)C(OC(=O)CCC=C)C(OC(=O)CCC=C)C3(COC(=O)CCC=C)C(O)CC21C (stereo not shown) [Compound C8]
Cytotoxicity activity [1]: weak

CCCCCC(=O)OCC12C(O)CC3(C)C(=CCC4C5(C)CCC(O)C(C)(CO)C5CCC43C)C1CC(C)(C)C(OC(=O)CCCCC)C2O (stereo not shown) [Compound D25]
Cytotoxicity activity [1]: moderate

C/C=C(/C)C(=O)OC[C@]1(C)[C@@H]2CC[C@]3(C)[C@H](CC=C4[C@@H]5CC(C)(C)[C@@H](O)[C@H](O)[C@]5(CO)[C@H](O)C[C@]43C)[C@@]2(C)CC[C@@H]1OC(=O)/C(C)=C\C [Compound G31]
Cytotoxicity activity [1]: moderate

CC=CC(=O)OC1C(O)C2(COC(=O)C(C)=CC)C(O)CC3(C)C(=CCC4C5(C)CCC(O)C(C)(COC(=O)C(C)=CC)C5CCC43C)C2CC1(C)C (stereo not shown) [Tig—R—Cro—2]
Cytotoxicity activity [2]: moderate

CC=C(C)C(=O)OCC1(C)C(O)CCC2(C)C1CCC1(C)C2CC=C2C3CC(C)(C)C(OC(=O)C(C)=CC)C(O)C3(COC(=O)C(C)=CC)C(OC(=O)C(C)=CC)CC21C (stereo not shown) [Compound A13]
Cytotoxicity activity [1]: weak

CC1(C)CC2C3=CCC4C5(C)CCC(O)C(C)(COC(=O)c6ccccc6)C5CCC4(C)C3(C)CC(OC(=O)c3ccccc3)C2(COC(=O)c2ccccc2)C(OC(=O)c2ccccc2)C1OC(=O)c1ccccc1 (stereo not shown) [Compound K16]
Cytotoxicity activity [3]: weak
Cytotoxicity activity [4]: weak
Cytotoxicity activity [5]: weak
Cytotoxicity activity [6]: weak
Cytotoxicity activity [7]: weak
Cytotoxicity activity [8]: weak
Cytotoxicity activity [9]: weak
Cytotoxicity activity [10]: weak
Cytotoxicity activity [11]: weak

CC1(C)CC2C3=CCC4C5(C)CCC(O)C(C)(COC(=O)C=Cc6ccccc6)C5CCC4(C)C3(C)CC(O)C2(COC(=O)C=Cc2ccccc2)C(O)C1OC(=O)C=Cc1ccccc1 (stereo not shown) [Compound J4]
Cytotoxicity activity [12]: moderate

C=CCCC(=O)OCC12C(O)CC3(C)C(=CCC4C5(C)CCC(O)C(C)(COC(=O)C(C)=CC)C5CCC43C)C1CC(C)(C)C(OC(=O)CCC=C)C2O (stereo not shown) [Tig—Pen—2]
Cytotoxicity activity [2]: moderate

CC1(C)CC2C3=CCC4C5(C)CCC(O)C(C)(COC(=O)C=Cc6ccccc6)C5CCC4(C)C3(C)CC(O)C2(CO)C(O)C1OC(=O)C=Cc1ccccc1 (stereo not shown) [Compound J29]
Cytotoxicity activity [12]: moderate

C=CCCC(=O)OCC1(C)C(O)CCC2(C)C1CCC1(C)C2CC=C2C3CC(C)(C)C(O)C(OC(=O)CCC=C)C3(COC(=O)CCC=C)C(OC(=O)CCC=C)CC21C (stereo not shown) [Compound C12]
Cytotoxicity activity [1]: weak

CC=CC(=O)OCC1(C)C(O)CCC2(C)C1CCC1(C)C2CC=C2C3CC(C)(C)C(O)C(O)C3(CO)C(OC(=O)C=CC)CC21C (stereo not shown) [Compound I32]
Cytotoxicity activity [13]: moderate

C=CCCC(=O)OCC12C(O)CC3(C)C(=CCC4C5(C)CCC(O)C(C)(COC(=O)C(C)=CC)C5CCC43C)C1CC(C)(C)C(O)C2O (stereo not shown) [Tig—Pen—1]
Cytotoxicity activity [2]: strong

C=CCCC(=O)OC1C(OC(=O)CCC=C)C2(COC(=O)C(C)=CC)C(O)CC3(C)C(=CCC4C5(C)CCC(O)C(C)(COC(=O)C(C)=CC)C5CCC43C)C2CC1(C)C (stereo not shown) [Tig—R—Pen—1]
Cytotoxicity activity [2]: weak

CC=C(C)C(=O)OCC1(C)C(OC(=O)C=Cc2ccccc2)CCC2(C)C1CCC1(C)C2CC=C2C3CC(C)(C)C(O)C(O)C3(COC(=O)C=Cc3ccccc3)C(O)CC21C (stereo not shown) [Tig—Cin—4]
Cytotoxicity activity [2]: moderate

CC(C)=CC(=O)OCC1(C)C(O)CCC2(C)C1CCC1(C)C2CC=C2C3CC(C)(C)C(O)C(OC(=O)C=C(C)C)C3(COC(=O)C=C(C)C)C(OC(=O)C=C(C)C)CC21C (stereo not shown) [Compound B12]
Cytotoxicity activity [1]: weak

CC=C(C)C(=O)OCC1(C)C(O)CCC2(C)C1CCC1(C)C2CC=C2C3CC(C)(C)C(O)C(O)C3(COC(=O)C(C)=CC)C(O)CC21C (stereo not shown) [Compound A3]
Cytotoxicity activity [1]: strong

CC1(C)CC2C3=CCC4C5(C)CCC(O)C(C)(CO)C5CCC4(C)C3(C)CC(O)C2(CO)C(OC(=O)C=Cc2ccccc2)C1OC(=O)C=Cc1ccccc1 (stereo not shown) [Compound J24]
Cytotoxicity activity [12]: moderate

CC(=O)OCC1(C)C(OC(C)=O)CCC2(C)C1CCC1(C)C2CC=C2C3CC(C)(C)C(O)C(OC(C)=O)C3(COC(C)=O)C(OC(C)=O)CC21C (stereo not shown) [Compound H18]
Cytotoxicity activity [14]: weak

CCCCCC(=O)OCC12C(O)CC3(C)C(=CCC4C5(C)CCC(OC(=O)CCCCC)C(C)(CO)C5CCC43C)C1CC(C)(C)C(O)C2O (stereo not shown) [Compound D27]
Cytotoxicity activity [1]: moderate

CC(=O)OCC1(C)C(OC(C)=O)CCC2(C)C1CCC1(C)C2CC=C2C3CC(C)(C)C(O)C(O)C3(COC(C)=O)C(OC(C)=O)CC21C (stereo not shown) [Compound H10]
Cytotoxicity activity [14]: weak

CC=CC(=O)OCC12C(O)CC3(C)C(=CCC4C5(C)CCC(O)C(C)(CO)C5CCC43C)C1CC(C)(C)C(O)C2O (stereo not shown) [Compound I2]
Cytotoxicity activity [13]: moderate

CC(C)=CC(=O)OCC1(C)C(OC(=O)C=C(C)C)CCC2(C)C1CCC1(C)C2CC=C2C3CC(C)(C)C(O)C(O)C3(COC(=O)C=C(C)C)C(O)CC21C (stereo not shown) [Compound B6]
Cytotoxicity activity [1]: moderate
